Measured values: EP1614683B1, “Indazole compounds and pharmaceutical compositions for inhibiting protein kinases, and methods for their use” (priority 1999, dated 2001)
Read-outs that look alike come from different tables or passages of the source.

What was measured:
[1] = test system: human umbilical vein endothelial cells (HUVEC); experiment: HUVEC proliferation assay (VEGF-stimulated, MTT); format: cell-based; conditions: Homo sapiens, HUVEC, Table 1; + albumin; read-out: HUVEC + albumin IC50
Protocol: This assay determines the ability of a test compound to inhibit the growth factor-stimulated proliferation of human umbilical vein endothelial cells ("HUVEC"). HUVEC cells (passage 3-4, Clonetics, Corp.) were thawed into EGM2 culture medium (Clonetics Corp) in T75 flasks. Fresh EGM2 medium was added to the flasks 24 hours later. Four or five days later, cells were exposed to another culture medium (F12K medium supplemented with 10% fetal bovine serum (FBS), 60 µg/mL endothelial cell growth supplement (ECGS), and 0.1 mg/mL heparin). Exponentially-growing HUVEC cells were used in experiments thereafter. Ten to twelve thousand HUVEC cells were plated in 96-well dishes in 100 µl of rich, culture medium (described above). The cells were allowed to attach for 24 hours in this medium. The medium was then removed by aspiration and 105 µl of starvation media (F12K+1% FBS) was added to each well. After 24 hours, 15 µl of test agent dissolved in 1% DMSO in starvation medium or this vehicle alone was added into each treatment well; the final DMSO concentration was 0.1%. One hour later, 30 µl of VEGF (30 ng/mL) in starvation media was added to all wells except those containing untreated controls; the final VEGF concentration was 6 ng/mL. Cellular proliferation was quantified 72 hours later by MTT dye reduction, at which time cells were exposed for 4 hours MTT (Promega Corp.).

[2] = biological target: unphosphorylated VEGF-R2Δ50 (Homo sapiens, UniProt P35968, DEL940-989/E990V); experiment: biochemical; conditions: for inhibition at 0.05 µM: read-out: FLVK ** (% inhibition)
Sequence of unphosphorylated VEGF-R2Δ50 (P35968 with tags, fused parts or gaps DEL940-989/E990V limits assumed): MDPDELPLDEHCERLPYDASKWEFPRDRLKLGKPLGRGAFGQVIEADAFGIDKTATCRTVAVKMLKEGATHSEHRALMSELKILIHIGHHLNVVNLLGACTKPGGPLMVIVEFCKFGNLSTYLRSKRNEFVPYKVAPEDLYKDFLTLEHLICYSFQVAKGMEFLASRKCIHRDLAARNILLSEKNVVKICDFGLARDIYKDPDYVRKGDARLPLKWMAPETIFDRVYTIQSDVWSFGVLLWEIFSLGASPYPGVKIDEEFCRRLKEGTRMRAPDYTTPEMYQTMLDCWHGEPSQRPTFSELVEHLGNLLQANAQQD

LCK tyrosine kinase = LCK tyrosine kinase (Homo sapiens, UniProt P06239, C224D/P223M); experiment: LCK spectrophotometric assay; format: biochemical; conditions: Table 1; compound concentration 1 µM; read-out: Lck-P* (% inhibition)
Sequence of LCK tyrosine kinase (P06239 223-509 P223M/C224D): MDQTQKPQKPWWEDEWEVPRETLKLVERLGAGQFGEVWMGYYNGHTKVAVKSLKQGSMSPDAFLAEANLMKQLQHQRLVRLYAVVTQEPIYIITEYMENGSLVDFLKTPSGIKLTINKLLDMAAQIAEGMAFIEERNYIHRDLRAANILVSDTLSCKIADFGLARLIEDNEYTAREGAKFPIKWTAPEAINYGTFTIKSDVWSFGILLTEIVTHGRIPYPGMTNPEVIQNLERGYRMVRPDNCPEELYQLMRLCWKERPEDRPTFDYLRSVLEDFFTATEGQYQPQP
Protocol: The spectrophotometric assay was carried out as described above for VEGF-R2, except for the following changes in concentration: LCK = 60 nM, MgCl2 = 0 mM, poly(E4Y1) = 20 mM.

human FGF-R1 = human FGF-R1 (Homo sapiens, UniProt P11362, C488A/C584S/L457V); experiment: FGF-R spectrophotometric assay; format: biochemical; conditions: read-out: FGF-P* (% inhibition)
Sequence of human FGF-R1 (P11362 456-766 L457V/C488A/C584S): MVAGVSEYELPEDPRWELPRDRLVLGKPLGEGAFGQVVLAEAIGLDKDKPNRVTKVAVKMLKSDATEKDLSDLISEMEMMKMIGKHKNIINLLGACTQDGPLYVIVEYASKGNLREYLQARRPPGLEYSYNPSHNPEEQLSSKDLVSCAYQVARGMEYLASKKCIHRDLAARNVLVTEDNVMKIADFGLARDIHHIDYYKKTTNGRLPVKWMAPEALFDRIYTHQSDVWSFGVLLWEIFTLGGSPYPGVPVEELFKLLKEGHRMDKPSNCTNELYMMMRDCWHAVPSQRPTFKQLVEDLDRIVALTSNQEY
Protocol: The spectrophotometric assay was carried out as described above for VEGF-R2, except for the following changes in concentration: FGF-R = 50 nM, ATP = 2 mM, and poly(E4Y1) =15 mM.

in vitro = in vitro ADME, human; conditions: human liver microsomes, 5 µM test compound, 37 °C, 2 h
Protocol: Compound metabolism in human liver microsomes was measured by LC-MS analytical assay procedures as follows. First, human liver microsomes (HLM) were thawed and diluted to 5 mg/mL with cold 100 mM potassium phosphate (KPO4) buffer. Appropriate amounts of KPO4 buffer, NADPH-regenerating solution (containing B-NADP, glucose-6-phosphate, glucose-6-phosphate dehydrogenase, and MgCl2), and HLM were preincubated in 13 x 100 mm glass tubes at 37 C for 10 min. (3 tubes per test compound--triplicate). Test compound (5 µM final) was added to each tube to initiate reaction and was mixed by gentle vortexing, followed by incubation at 37 °C. At t=0, 2 h, a 250-µL sample was removed from each incubation tube to separate 12 x 75 mm glass tubes containing 1 mL ice-cold acetonitrile with 0.05 µM reserpine. […] Supernatant was transferred to new 12 x 75 mm glass tubes and evaporated by Speed-Vac centrifugal vacuum evaporator. Samples were reconstituted in 200 µL 0.1 % formic acid/acetonitrile (90/10) and vortexed vigorously to dissolve. The samples were then transferred to separate polypropylene microcentrifuge tubes and centrifuged at 14000 x g for 10 min. (Fisher Micro 14, S/N M0017580). For each replicate (#1-3) at each timepoint (0 and 2 h), an aliquot sample of each test compound was combined into a single HPLC vial insert (6 total samples) for LC-MS analysis, which is described below.

[3] = Table 1, compound concentration 1 µM

Row | SMILES | IC50 [1] | inhibition at 0.05 µM [2] | inhibition at 1 µM (LCK tyrosine kinase) | inhibition at 1 µM (human FGF-R1; [3]) | % remain (HLM, 2 h) (in vitro) | inhibition at 1 µM (human FGF-R1) | inhibition at 1 µM ([2]; read-out: FLVK ** (% inhibition, cell marked *))
1 | O=C(N[C@@H]1C[C@H]1c1ccccc1)c1ccccc1Sc1ccc2c(/C=C/c3ccccn3)n[nH]c2c1 (racemic) [Reference Example 34] | 15 nM | 97% | 78% | 95% |  |  | 
2 | COc1cccc(CNC(=O)c2ccccc2Sc2ccc3c(/C=C/c4ccccn4)n[nH]c3c2)c1 [Reference Example 35(aa)] | 5 nM | 99% |  |  | 15% |  | 
3 | CC(C)NC(=O)c1ccccc1Sc1ccc2c(/C=C/c3ccccn3)n[nH]c2c1 [Reference Example 35(b), 6-[2-(i-Propylcarbamoyl)phenylsulfanyl]-3-E-[2-(pyridin-2-yl)ethenyl]-1H-indazole] | 35 nM | 49% | 12% | 59% |  |  | 
4 | O=C(NCc1ccccc1F)c1ccccc1Sc1ccc2c(/C=C/c3ccccn3)n[nH]c2c1 [Reference Example 35(f)] |  | 100% |  |  | 15% |  | 
5 | O=C(NCCc1cccs1)c1ccccc1Sc1ccc2c(/C=C/c3ccccn3)n[nH]c2c1 [Reference Example 35(hh), 6-[2-(2-(Thien-2-yl)ethylcarbamoyl)phenylsulfanyl]-3-E-[2-(pyridin-2-yl)ethenyl]-1H-indazole] | 7 nM | 100% | 34% | 73% |  |  | 
6 | Cc1ccccc1C(=O)NNC(=O)c1ccccc1Sc1ccc2c(/C=C/c3ccccn3)n[nH]c2c1 [Reference Example 35(q), 6-[2-((2-Methylphenylhydrazido)carbonyl)phenylsulfanyl]-3-E-[2-(pyridin-2-yl)ethenyl]-1H-indazole] | 18 nM | 92% | 42% | 51% |  |  | 
7 | Cn1ccnc1/C=N/NC(=O)c1ccccc1Sc1ccc2c(/C=C/c3ccccn3)n[nH]c2c1 [Reference Example 36(a)] | 19 nM | 87% | 19% | 38% |  |  | 
8 | O=C(N/N=C/c1ccccn1)c1ccccc1Sc1ccc2c(/C=C/c3ccccn3)n[nH]c2c1 [Reference Example 36(b)] |  | 85% | 22% | 43% |  |  | 
9 | O=C(N/N=C/C(F)(F)F)c1ccccc1Sc1ccc2c(/C=C/c3ccccn3)n[nH]c2c1 [Reference Example 36(c)] |  | 89% | 28% | 60% |  |  | 
10 | O=C(NC1CC1)c1cccc(F)c1Sc1ccc2c(/C=C/c3ccccn3)n[nH]c2c1 [Reference Example 37(b), 6-[6-Fluoro-2-(cyclopropylcarbamoyl)phenylsulfanyl]-3-E-[2-(pyridin-2-yl)ethenyl]-1H-indazole] | 30 to 100 nM | 48% | 8% | 36% |  |  | 
11 | CNC(=O)c1cccc(F)c1Sc1ccc2c(/C=C/c3ccccn3)n[nH]c2c1 [Reference Example 37(d), 6-[6-Fluoro-2-(methylcarbamoyl)phenylsulfanyl]-3-E-[2-(pyridin-2-yl)ethenyl]-1H-indazole] |  | 26% | 10% | 38% |  |  | 
12 | Cc1ccc(C(=O)c2ccc3c(/C=C/c4ccccn4)n[nH]c3c2)cc1N [Reference Example 40(b), 6-(3-Amino-4-methyl-benzoyl)-3-E-[2-(pyridin-2-yl)ethenyl]-1H-indazole] |  | 89% | 32% | 92% |  |  | 
13 | Cc1cc(C)c(C(=O)c2ccc3c(/C=C/c4ccccn4)n[nH]c3c2)cc1N [Reference Example 40(c), 6-(5-Amino-2,4-dimethyl-benzoyl)-3-E-[2-(pyridin-2-yl)ethenyl]-1H-indazole] |  | 24% | 28% | 59% |  |  | 
14 | O=C(Nc1cccc(C(=O)c2ccc3c(/C=C/c4ccccn4)n[nH]c3c2)c1)Oc1ccccc1 [Reference Example 41(cc), 6-[3-(phenoxyamido)benzoyl]-3-E-[2-(pyridin-2-yl)ethenyl]-1H-indazole] |  | 97% | 41% |  |  | 95% | 
15 | Cc1cc(C(=O)Nc2cc(C(=O)c3ccc4c(/C=C/c5ccccn5)n[nH]c4c3)ccc2C)n(C)n1 [Reference Example 41(hh), 6-[3-((1,3-Dimethyl-1H-pyrazol-5-yl)carboxamido)-4-methylbenzoyl]-3-E-[2-(pyridin-2-yl)ethenyl]-1H-indazole] | 3.9 nM | 98% | 13% | 74% |  |  | 
16 | CCc1cc(C(=O)Nc2cc(C(=O)c3ccc4c(/C=C/c5ccccn5)n[nH]c4c3)ccc2C)n(C)n1 [Reference Example 41(jj), 6-[3-((3-Ethyl-1-methyl-1H-pyrazol-5-yl)carboxamido)-4. methylbenzoyl]-3-E-[2-(pyridin-2-yl)ethenyl]-1H-indazole] | 21 nM | 87% | 19% | 81% |  |  | 
17 | CC(=O)Nc1cc(C(=O)c2ccc3c(/C=C/c4ccccn4)n[nH]c3c2)c(C)cc1C [Reference Example 41(nn), 6-(5-acetamido-2,4-dimethylbenzoyl)-3-E-[2-(pyridin-2-yl)ethenyl]-1H-indazole] |  | 57% | 7% | 91% |  |  | 
18 | Cc1cc(C(=O)Nc2cccc(C(=O)c3ccc4c(/C=C/c5ccccn5)n[nH]c4c3)c2)cc(Cl)n1 [Reference Example 41(q), 6-[3-((2-chloro-6-methylpyridin-4-yl)carboxamido)benzoyl]-3-E-[2-(pyridin-2-yl)ethenyl]-1H-indazole] |  | 100% | 53% | 91% |  |  | 
19 | CCc1cc(C(=O)Nc2cccc(C(=O)c3ccc4c(/C=C/c5ccccn5)n[nH]c4c3)c2)n(C)n1 [Reference Example 41(v), 6-[3-((3-Ethyl-1-methyl-1H-pyrazol-5-yl)carboxamido)benzoyl]-3-E-[2-(pyridin-2-yl)ethenyl)-1H-indazole] | 12 nM |  | 52% | 68% |  |  | 68%
20 | O=C(Nc1cccc(C(=O)c2ccc3c(/C=C/c4ccccn4)n[nH]c3c2)c1)c1ccnc(Cl)c1 [Reference Example 41(w), 6-[3-((2-chloropyridin-4-yl)carboxamido)benzoyl]-3-E-[2-(pyridin-2-yl)ethenyl]-1H-indazole] | ~10 nM | 97% | 49% | 67% |  |  | 
21 | CC(C)COC(=O)Nc1cccc(C(=O)c2ccc3c(/C=C/c4ccccn4)n[nH]c3c2)c1 [Reference Example 41(y)] | 30 to 100 nM | 98% | 61% | 86% |  |  | 
22 | O=C(c1cccc(NC(=O)c2cc(Cl)ccn2)c1)c1ccc2c(/C=C/c3ccccn3)n[nH]c2c1 [Reference Example 41(z), 6-[3-((4-chloropyridin-2-yl)carboxamido)benzoyl]-3-E-[2-(pyridin-2-yl)ethenyl]-1H-indazole] | 7.5 nM | 100% | 54% | 74% |  |  | 
